From the supplement of paper PMC11208160

Assay: recombinant barcode read abundance after kanamycin selection (control-corrected) (log10(CPM+1)); higher = more efficient recombination; sequences stand for … in AGTGCAGAGAAAATCGGCCAGTTTTCTCTGCCTGCAGTCCGCATGCCGT…AGATTTATGCAGCGGACTGCCTTTCTCCCAAAGTGATAAACCGGACAGTATCATGGACCGGTTTTCCCGGTAATCCGTATTTGCAAGGTTGGTTTCACT; site = the 11-nt target
Method in brief: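 The screen was pooled in E. coli and paired targets with IS621 bridge RNA target-binding loops. Recombination efficiency is taken from barcode counts per million at recombinant junctions, averaged and adjusted against the control. Values, in the form log10(CPM+1), come from duplicate plating on chloramphenicol/ampicillin LB agar or on chloramphenicol/ampicillin/kanamycin with 0.1 mM IPTG.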
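Note: IS621 recombinase and bridge RNA in Escherichia coli cells.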

Row | Sequence | recombinant barcode read abundance (log10)
1 | GCCTGGTCTTGGGTTCTAACCTGTTGCCT (site GCCTGGTCTAG) | 1.01
2 | ACGTGAACTTGGGTTCTAACCTGTTGCCT (site ACCTGAACTAG) | 0.0714
3 | TAGGATTCTTGGGTTCTAACCTGTTGCCT (site TAGGATTCTAG) | 1.88
4 | AGTTAGTCTTGGGTTCTAACCTGTTGCCA (site AGTTAGTCTTG) | 0.0604
5 | TGGTTACCTTGGGTTCTAACCTGTTGCGG (site CACACGACTAA) | 0.0374
6 | GGTGCTCCTTGGGTTCTAACCTGTTGCTT (site ATTGCTCCTAA) | 0.135
7 | TACTACCCTTGGGTTCTAACCTGTTGCCT (site TGCTACCCTAG) | 0.0397
8 | GAGGGCCCTTGGGTTCTAACCTGTTGCAG (site GAGGGCCCTCA) | 2.07
9 | CTACCCTCTTGGGTTCTAACCTGTTGCCT (site TCTAAGACTGC) | 0.122
10 | CTAACCTCTTGGGTTCTAACCTGTTGCTT (site CTAACCTCTAA) | 0.505
11 | ACGGACCCTTGGGTTCTAACCTGTTGCAT (site ACGAACCCTAG) | 0.225
12 | CGATTTCCTTGGGTTCTAACCTGTTGCCT (site CGATTTCCTAT) | 0.102
13 | ACTCCAGCTTGGGTTCTAACCTGTTGCCT (site ACTCCAGCTAG) | 1.79
14 | ACGTTGTCTTGGGTTCTAACCTGTTGCCT (site ACTTTGTCTAG) | 0.0891
15 | GGGAACCCTTGGGTTCTAACCTGTTGCTG (site GGGAACCCTGA) | 0.0561
16 | ACGAGAGCTTGGGTTCTAACCTGTTGCCT (site ACAAGAGCTAG) | 0.92
17 | ATTGCTCCTTGGGTTCTAACCTGTTGCTT (site GGTGCTCCTAA) | 0.722
18 | CGGCTTCCTTGGGTTCTAACCTGTTGCTT (site CGGCTTCCTAA) | 0.104
19 | TACCCTTCTTGGGTTCTAACCTGTTGCGT (site TACCCTTCTAC) | 1.84
20 | GCTTCGTCTTGGGTTCTAACCTGTTGCCT (site GCGTCGTCTAG) | 0.0292
21 | GTGAGGTCTTGGGTTCTAACCTGTTGCAT (site GTGAGGTCTAC) | 0.709
22 | TACTACCCTTGGGTTCTAACCTGTTGCCT (site TCCTACCCTAG) | 0.126

Row | Sequence | recombinant barcode read abundance (log10)
23 | GCTAACCCTTGGGTTCTAACCTGTTGCGT (site GCGAACCCTCC) | 0
24 | AAACGCTCTTGGGTTCTAACCTGTTGCCT (site AAACGCTCTAG) | 1.75
25 | TGGTGTCCTTGGGTTCTAACCTGTTGCCA (site TCGAGTCCTTG) | 0.0738
26 | ATGAGGCCTTGGGTTCTAACCTGTTGCTA (site ATGAGGCCTTA) | 0.739
27 | TACGGTCCTTGGGTTCTAACCTGTTGCTT (site TAGGCTCCTAA) | 0.261
28 | ACTGTGACTTGGGTTCTAACCTGTTGCCT (site ACTGTGACTAG) | 2.71
29 | TCTGATTCTTGGGTTCTAACCTGTTGCGT (site TCTTATTCTAC) | 0.212
30 | GAGAGTACTTGGGTTCTAACCTGTTGCAT (site GAGCGTACTAT) | 0.16
31 | GGGGTTCCTTGGGTTCTAACCTGTTGCAT (site GGGGTTCCTAC) | 0.129
32 | CGCTTGACTTGGGTTCTAACCTGTTGCCT (site CGCTTGACTAG) | 0.00854
33 | TTCAGGGCTTGGGTTCTAACCTGTTGCAG (site TTCAGGGCTCT) | 1.99
34 | AGGAGCGCTTGGGTTCTAACCTGTTGCCT (site AGGAGCGCTAG) | 1.95
35 | CTTTAGACTTGGGTTCTAACCTGTTGCAT (site CTTTAGACTAT) | 0.926
36 | ATTTGAACTTGGGTTCTAACCTGTTGCCT (site ATTTGCACTAG) | 0.0882
37 | CCACACTCTTGGGTTCTAACCTGTTGCCT (site CAACACTCTAG) | 0.0891
38 | AAGGGCCCTTGGGTTCTAACCTGTTGCCT (site TAGGGCCCTAG) | 2.24
39 | CGTTCCACTTGGGTTCTAACCTGTTGCCT (site CGTTCAACTAG) | 0.0139
40 | GGGCACACTTGGGTTCTAACCTGTTGCCA (site GGGCACACTTG) | 0.698
41 | AGCCACACTTGGGTTCTAACCTGTTGCCT (site AGCCACGCTAG) | 0.374
42 | TAGCCTGCTTGGGTTCTAACCTGTTGCCT (site TAGTCTGCTAG) | 0.177
43 | TAGTTGCCTTGGGTTCTAACCTGTTGCCT (site TATTTGCCTAG) | 0.0554
44 | TAGAACTCTTGGGTTCTAACCTGTTGCGC (site TAGAACTCTGC) | 1

Row | Sequence | recombinant barcode read abundance (log10)
45 | CGTCACACTTGGGTTCTAACCTGTTGCCT (site CGCCACACTAG) | 0.107
46 | GCACCAACTTGGGTTCTAACCTGTTGCCT (site GCACCAACTAG) | 1.12
47 | TGGAGTACTTGGGTTCTAACCTGTTGCCT (site TGGGGTACTAG) | 0.146
48 | TAGGCGCCTTGGGTTCTAACCTGTTGCCT (site TAGGCGCCTAG) | 0.252
49 | GAGTGGACTTGGGTTCTAACCTGTTGCGT (site GACCGGACTAC) | 0.349
50 | ATGGTCACTTGGGTTCTAACCTGTTGCCT (site ATGGTCACTAG) | 2.54
51 | ACAGTGTCTTGGGTTCTAACCTGTTGCGG (site ACATTGTCTCC) | 0.324
52 | TTCAGGGCTTGGGTTCTAACCTGTTGCAG (site AGAGCCTCTTA) | 0.111
53 | TGTCGAGCTTGGGTTCTAACCTGTTGCGG (site TGTCGAGCTCC) | 0.977
54 | GAGTGTCCTTGGGTTCTAACCTGTTGCGA (site GTGTCTCCTTC) | 0.0874
55 | GTCGTCCCTTGGGTTCTAACCTGTTGCCT (site GTCGTCCCTAG) | 0.315
56 | CTCTGGACTTGGGTTCTAACCTGTTGCTT (site CTCTGGACTAA) | 1.13
57 | CTCTAGTCTTGGGTTCTAACCTGTTGCAT (site CTCTAGTCTAT) | 1.8
58 | CGTCTGCCTTGGGTTCTAACCTGTTGCCT (site AGTCTGCCTAG) | 0.0222
59 | TGGAGTACTTGGGTTCTAACCTGTTGCCT (site TGGTGTACTAG) | 0
60 | AGTTGGCCTTGGGTTCTAACCTGTTGCAG (site AGTTGGCCTCT) | 0.39
61 | ATATTGCCTTGGGTTCTAACCTGTTGCCT (site ATATTGTCTTG) | 0.0732
62 | CGTCACACTTGGGTTCTAACCTGTTGCCT (site CGTCACACTAG) | 0.013
63 | AGTAAGACTTGGGTTCTAACCTGTTGCAT (site AGTAAGACTAT) | 1.41
64 | GCGTCTCCTTGGGTTCTAACCTGTTGCAT (site GCGACTCCTAT) | 0.209
65 | AGGCTGACTTGGGTTCTAACCTGTTGCCT (site AGGCTGCCTAG) | 0.0128
66 | CTATGTGCTTGGGTTCTAACCTGTTGCGA (site CTATGTGCTTC) | 1.87

Row | Sequence | recombinant barcode read abundance (log10)
67 | AGGAGCCCTTGGGTTCTAACCTGTTGCTC (site AGGAGCCCTTA) | 0.0844
68 | TAGGCTACTTGGGTTCTAACCTGTTGCAC (site TAGGCTACTTT) | 0.00761
69 | GATTCTCCTTGGGTTCTAACCTGTTGCCT (site GATTCTCCTAG) | 0.0773
70 | CAGCGAGCTTGGGTTCTAACCTGTTGCCG (site CATCGAGCTCG) | 0.0483
71 | GGATAGCCTTGGGTTCTAACCTGTTGCCT (site TGATAGCCTAG) | 0.239
72 | TACAGCCCTTGGGTTCTAACCTGTTGCCT (site TACAGCCCTAG) | 0.932
73 | CAGGGTTCTTGGGTTCTAACCTGTTGCCT (site CAGGGTTCTAG) | 2.18
74 | ATGGCACCTTGGGTTCTAACCTGTTGCCT (site ATGGCACCTAG) | 1.04
75 | GCTCAACCTTGGGTTCTAACCTGTTGCCT (site GATCAACCTAG) | 0.796
76 | AACGGAGCTTGGGTTCTAACCTGTTGCGG (site AACGGAGCTCC) | 1.78
77 | GTACGTCCTTGGGTTCTAACCTGTTGCAT (site GTACGTCCTAC) | 1.01
78 | CCTAAGACTTGGGTTCTAACCTGTTGCCA (site CCTAAGACTGG) | 0.0159
79 | GCTCAGCCTTGGGTTCTAACCTGTTGCCT (site GCTCAGTCTAG) | 0.072
80 | TAGCGCACTTGGGTTCTAACCTGTTGCGG (site TAGCTCACTCC) | 0.13
81 | TGCCTGCCTTGGGTTCTAACCTGTTGCAG (site TGCCTGCCTCT) | 0.0105
82 | TACATCCCTTGGGTTCTAACCTGTTGCCG (site TACATCCCTGG) | 0.0502
83 | GGTCATACTTGGGTTCTAACCTGTTGCCT (site GGTCATGCTAG) | 0.074
84 | CCGGATTCTTGGGTTCTAACCTGTTGCCT (site CCGGATTCTAG) | 1.69
85 | GACAGGCCTTGGGTTCTAACCTGTTGCGT (site CTGCTAGCTCT) | 0.278
86 | CCTCATTCTTGGGTTCTAACCTGTTGCTT (site CCTCATTCTAA) | 0.199
